The target in one assay is T1, human PGI2 receptors (Homo sapiens, UniProt P43119).
T1 construct: expressed in transfected cells; host or cells: CHO cells (membrane fraction)
The assay is described as follows: PGI2 receptor binding assay. The note with it: membrane fraction of CHO cells expressing human PGI2 receptors, [3H]Iloprost 20 nM, pH 6.0, 37° C. 1 hour; read-out: IC50, inhibition of [3H]Iloprost binding to the human PGI2 receptor. The procedure:
PGI2 receptor binding assay
MES-NaOH buffer (pH 6.0) (500 μL) containing the membrane fraction (40 μg) of CHO cells caused to express human PGI2 receptors, [^3H]Iloprost (20 nM), and a test compound solution (50 μL) was incubated at 37° C. for 1 hour and then filtered through a membrane filter to separate the membrane-bound [^3H]Iloprost from the non-membrane-binding [^3H]Iloprost. The radioactivity of the membrane-bound [^3H]Iloprost was determined with a liquid scintillation counter and the binding inhibition rate in each drug treatment group was determined against the specific binding of [^3H]Iloprost to the human PGI2 receptor in the control (solvent) group.
The test compound was added at the final concentrations of 10^−6 to 10^−11 M and the IC50 values were calculated from the inhibition rates at the respective concentrations.

In a further assay the test system is human platelets. The assay is described as follows: Platelet aggregation inhibition assay. Type of assay: cell-based. The note with it: ADP-induced aggregation, platelet-rich plasma from healthy male adult donors, 37° C. The procedure: Platelet aggregation inhibition assay
The citrated blood from healthy male adult donors was centrifuged at 1000×g for […] and 20 minutes to harvest platelet-rich plasma (PRP) and platelet-poor plasma (PPP), respectively. Then, PRP was diluted with PPP to a platelet count of 300,000/μL. The degree of platelet aggregation was measured with a platelet aggregation measuring apparatus.
In the assay cuvette, 200 μL of PRP was incubated at 37° C. for 2 minutes. Then, 20 μL of a test drug solution was added and the mixture was further incubated for 2 minutes. Thereafter, aggregation was induced by adding 20 μl of ADP solution. The aggregation in the drug treatment group was compared with the maximum aggregation in the control group to find the inhibition rate. ADP was used in the minimal concentration (2×10^−6 to 3×10^−5 M) inducing maximal aggregation in each assay.
The test compound was added at the final concentrations of 10^−3 to 10^−9 and the IC50 value was calculated from the inhibition rates at the respective concentrations.

T1 sequence (P43119 whole entry): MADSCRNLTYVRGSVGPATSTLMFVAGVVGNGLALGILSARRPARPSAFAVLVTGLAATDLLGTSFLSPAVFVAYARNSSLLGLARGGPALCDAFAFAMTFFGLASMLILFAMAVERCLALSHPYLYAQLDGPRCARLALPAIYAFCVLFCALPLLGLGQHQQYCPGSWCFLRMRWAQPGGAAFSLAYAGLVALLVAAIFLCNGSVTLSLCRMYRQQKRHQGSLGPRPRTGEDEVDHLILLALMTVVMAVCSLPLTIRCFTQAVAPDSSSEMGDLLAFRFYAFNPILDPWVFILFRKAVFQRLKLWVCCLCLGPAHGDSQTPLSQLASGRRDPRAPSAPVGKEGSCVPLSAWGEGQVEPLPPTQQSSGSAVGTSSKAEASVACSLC

With `O=C(O)COc1cccc2c1CCc1sc(SCC(c3ccccc3)c3ccccc3)nc1-2` [Example 1, [[2-(2,2-Diphenylethyl)thio-4,5-dihydronaphtho[1,2-d]thiazol-6-yl]oxy]acetic acid], the values for the IC50 at human PGI2 receptors and in the assay on human platelets were 24 nM and 540 nM, respectively. `O=C(O)COc1cccc2c1OCc1sc(SCCC(c3ccccc3)c3ccccc3)nc1-2` [Example 11, [[2-(3,3-Diphenylpropyl)thio-4H-[1]benzopyrano[4,3-d]thiazol-6-yl]oxy]acetate acid]: the IC50 on human PGI2 receptors is 81 nM. In the case of `O=C(O)COc1cccc2c1OCc1sc(SCC(c3ccccc3)c3ccccc3)nc1-2` [Example 12, [[2-(2,2-Diphenylethyl)thio-4H-[1]benzopyrano[4,3-d]thiazol-6-yl]oxy]acetic acid], on human PGI2 receptors, the IC50 came to 61 nM. `O=C(O)COc1cccc2c1CCc1sc(SC(c3ccccc3)c3ccccc3)nc1-2` [Example 21, [(2-Diphenylmethylthio-4,5-dihydronaphtho[1,2-d]thiazol-6-yl)oxy]acetic acid]: the IC50 on human PGI2 receptors is 2 nM; in the assay on human platelets, 210 nM. For the compound `O=C(O)COc1cccc2c1CCc1sc(S(=O)(=O)CC(c3ccccc3)c3ccccc3)nc1-2` [Example 29, [[2-(2,2-Diphenylethyl)sulfonyl-4,5-dihydronaphtho[1,2-d]thiazol-6-yl]oxy]acetic acid], the IC50 on human PGI2 receptors was determined as 21 nM.

In general, IC50 refers to the midpoint of a concentration-inhibition curve.

These data come from patent US6417213B2, “Tricyclic compound, their production and use” (Takeda Chemical Industries, Ltd., priority 1996, dated 2002).
